Laboratory results: ChEMBL document CHEMBL1201862, “PubChem BioAssay data set” (2004)
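1) Cells in 96-well plates. 2) Compound, 48 h, 5 concentrations. 3) Linear interpolation between surrounding doses. 4) Unreached endpoint = highest concentration. The concentration for 50% growth inhibition is given as GI50.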 Active and inactive are the calls of the source. Rule as the data show it: active = GI50 up to about 1.1 µM and inactive = higher.

Experiments:
Test in all cases: NCI anticancer screen, dose series, 48 h
RPMI-8226 = test system: RPMI-8226
SK-MEL-5 = test system: SK-MEL-5
IGROV-1 = test system: IGROV-1
786-0 = test system: 786-0
CCRF-CEM = test system: CCRF-CEM
EKVX = test system: EKVX
OVCAR-3 = test system: OVCAR-3
RXF 393 = test system: RXF 393
SW-620 = test system: SW-620
TK-10 = test system: TK-10
Malme-3M = test system: Malme-3M
NCI-H226 = test system: NCI-H226
SN12C = test system: SN12C
A498 = test system: A498
A549 = test system: A549
SK-OV-3 = test system: SK-OV-3
HOP-62 = test system: HOP-62
COLO 205 = test system: COLO 205

Measured: GI50

CC(C)(c1ccccc1)c1ccc(OC#N)cc1
inactive: RPMI-8226 34.1 µM | SK-MEL-5 48.8 µM | IGROV-1 > 100 µM | 786-0 > 58.1 µM | CCRF-CEM 40.6 µM | EKVX > 100 µM | OVCAR-3 > 100 µM | RXF 393 46.1 µM | SW-620 99.3 µM | TK-10 > 100 µM | Malme-3M > 100 µM | NCI-H226 51.5 µM | SN12C 60.5 µM | A498 > 100 µM | A549 73.5 µM | SK-OV-3 98.6 µM | HOP-62 > 100 µM | COLO 205 > 41.3 µM

COC(=O)c1cc(-c2ccc(OC)c(OC)c2)oc1-c1ccc(OC)c(OC)c1
inactive: RPMI-8226 33.3 µM | SK-MEL-5 > 10 µM | IGROV-1 45.5 µM | 786-0 37.3 µM | CCRF-CEM > 100 µM | EKVX 52.4 µM | OVCAR-3 42.5 µM | RXF 393 19.1 µM | SW-620 45.3 µM | TK-10 53.8 µM | Malme-3M 43.7 µM | NCI-H226 34.3 µM | SN12C 26.8 µM | A498 18.7 µM | A549 44 µM | SK-OV-3 38.9 µM | HOP-62 35.7 µM | COLO 205 19.5 µM

CN1C(=O)C(=O)c2cc3c(c4c2c1cc1ccccc14)OCO3 [CEPHARADIONE A]
inactive: RPMI-8226 25.1 µM | SK-MEL-5 28.4 µM | IGROV-1 37.6 µM | 786-0 7.23 µM | CCRF-CEM 8.95 µM | EKVX 69.7 µM | OVCAR-3 62.1 µM | RXF 393 25.6 µM | SW-620 35.4 µM | TK-10 52.5 µM | Malme-3M 38.8 µM | NCI-H226 25.2 µM | SN12C 37.7 µM | A498 > 100 µM | A549 33.7 µM | SK-OV-3 50.4 µM | HOP-62 41.2 µM | COLO 205 28.7 µM

CC(C)Cc1cc(CCC(=O)Nc2ccccc2[N+](=O)[O-])nc(NC#N)n1
inactive: RPMI-8226 > 100 µM | SK-MEL-5 > 100 µM | IGROV-1 > 100 µM | 786-0 > 100 µM | CCRF-CEM > 100 µM | EKVX > 100 µM | OVCAR-3 > 100 µM | RXF 393 > 100 µM | SW-620 > 100 µM | TK-10 > 100 µM | Malme-3M > 100 µM | NCI-H226 > 100 µM | SN12C > 100 µM | A498 > 100 µM | A549 > 100 µM | SK-OV-3 > 100 µM | HOP-62 > 100 µM | COLO 205 > 100 µM

Cc1nc(N)sc1C(=O)/C=C\c1ccc2c(c1)OCO2
inactive: RPMI-8226 > 100 µM | SK-MEL-5 > 100 µM | IGROV-1 > 100 µM | 786-0 > 100 µM | CCRF-CEM > 100 µM | EKVX > 100 µM | OVCAR-3 > 100 µM | RXF 393 > 100 µM | SW-620 > 100 µM | TK-10 > 100 µM | Malme-3M > 100 µM | NCI-H226 > 100 µM | SN12C > 100 µM | A498 > 100 µM | A549 > 100 µM | SK-OV-3 > 100 µM | HOP-62 > 100 µM | COLO 205 > 100 µM

Cc1cc(C)c(C2[C@H]3C(=O)N(c4ccc(Cc5ccc(N6C(=O)[C@@H]7ON(c8ccccc8)C(c8c(C)cc(C)cc8C)[C@@H]7C6=O)cc5)cc4)C(=O)[C@H]3ON2c2ccccc2)c(C)c1 (stereo partly drawn)
inactive: RPMI-8226 > 100 µM | SK-MEL-5 > 100 µM | IGROV-1 > 100 µM | 786-0 > 100 µM | CCRF-CEM > 100 µM | EKVX > 100 µM | OVCAR-3 > 100 µM | RXF 393 44.1 µM | SW-620 > 100 µM | TK-10 > 100 µM | Malme-3M > 100 µM | NCI-H226 > 100 µM | SN12C > 100 µM | A498 > 100 µM | A549 > 100 µM | SK-OV-3 > 100 µM | HOP-62 > 100 µM | COLO 205 > 100 µM
